According to patent US7262151B2, “Methods and compositions for production of lipo-chito oligosaccharides by rhizobacteria” (McGill University, priority 2001, dated 2007):

Experiments:
[1] = tested on: Bradyrhizobium japonicum USDA 3; experiment: LCO production by wild type USDA3 (XAD resin extraction, HPLC); format: cell-based; settings: for production of LCOs, in words: at optimum concentrations
Experimental: Bradyrhizobium japonicum (strain USDA 3) was grown at 28° C. in yeast extract mannitol medium (YEM) (mannitol 10 g, K2HPO4 0.5 g, MgSO4.7H2O 0.2 g, NaCl 0.1 g, yeast extract 0.4 g, and distilled water 1000 ml), pH 6.8, shaken at 150 rpm until the OD620 reached 0.4-0.6 (4-6 d) in the dark. Thereafter, 2.0 l of bacterial subculture was started by inoculating with material from the first culture (5 ml of the first culture per 250 ml of YEM media), until the OD620 reached to 0.2-0.4. At this stage, methyl jasmonate, jasmonic acid and genistein were added to culture so that the final concentraton for methyl jasmonate and jasmonic acid was 5, 10, 25, 50 and 100 μM and 5 μM for genistein. The culture was incubated for 48-96 h and the LCO extracted according to the following procedure.
The LCO from the induced bacterial culture was isolated with XAD resins. Before using XAD resins for extraction, they were first conditioned. Each 40 grams of XAD resins were first washed two times with 20 mL acetone after conditioning for 15 minutes. This was followed by two washes of 20 mL methanol when the resins were conditioned for 15 minutes. Finally, the XAD resins were conditioned (5 min) and washed with 20 mL dd. water two times. The conditioned resins were placed in the refrigerator at 4° C. until use.
For each one liter of bacterial culture, 40 grams of resin was added to the flask and these were shaken together overnight at 150 rpm. The culture along with the resin was poured through a funnel into a flask fitted with a course brass mesh (fine enough to allow the culture go quickly through and filter out the resin without any loss). At this stage, the resins are washed with water. In order to extract LCO from the resin, the XAD resin was passed through a vacuum filtration system. The fritted glass base of the system was fitted with Whatman #1 paper disk with the objective to keep the solvent with the bead until vacuum is applied. The resin beads were washed two times with 40 mL methanol after conditioning for 5 minutes. […]

B. japonicum USDA 110 = experiment: LCO production by B. japonicum USDA 110 (butanol extraction, HPLC); format: cell-based, Bradyrhizobium japonicum
Experimental: Cultures of B. japonicum (strain USDA 110) were grown at 28° C. in 600 ml of sterile yeast mannitol medium (YEM) at pH 6.8. The culture was shaken at 150 rpm until an OD620 of 0.4 to 0.6 was achieved (4 to 6 days). When the culture reached this stage, it was divided equally into four flasks (150 mL) and specific concentrations of JA and genistein were added to the cultures.
One hundred and fifty mL of each culture were extracted with 40 mL of the HPLC-grade butanol (Fisher Science Ltd., 112 Colonnade Road, Nepean, ON, Canada) by shaking together for 5 minutes. The two phases were then allowed to separate by leaving the mixture to stand overnight. The upper layer (butanol) was collected with a glass pipette and 25 mL were placed in a 250 ml evaporation flask. LCO extract solutions were stored at 4° C. until evaporation. This step was conducted at 80° C. with a Yamato RE 500 Rotary Evaporator (Yamato Scientific American Inc., Orangeburge, N.Y., USA). The butanol phase was evaporated down to 2 to 3 mL. The resulting light brown material was dissolved in 4 ml of 18% acetonitrile and stored in the dark at 4° C. in a glass tube sealed with parafilm.
For HPLC analysis we used a Vydac C18 reversed—phase column (VYDAC, Hesperia, Calif., USA) with a flow rate of 1.0 mL/min and a Vydac guard column (VYDAC, Hesperia, Calif., USA). We used at least 10 min. of isocratic run with 18% acetonitrile (AcN/H2O; w/w) to establish a baseline. The baseline value was always about 0.010. When a sample was loaded we conducted an isocratic elution with 18% AcN for 45 min. This step removed all non-polar light fractions. We then applied a gradient elution (18 to 82% AcN) for 70 min. LCOs begin to appear at 84 to 86 min of HPLC run time. We used B. japonicum Nod factor (BjV (C18:1, MeFuc)) obtained from G. Stacey (University of Tennessee, Knoxville, Tenn.) as a standard. The identity of the LCO was confirmed by the Complex Carbohydrate Research Center at the University of Georgia with FAB-MS and MALDI-TOF spectrometry analysis.
There were two experiments conducted. In the first the treatments consisted of factorial combinations of two concentrations (0 and 20 μM) of two signal materials (JA and genistein (zhang and Smith, 1995)). The experiment was organized following a randomized complete block design with three blocks. In experiment 1, two temperatures were used (17 and 25° C.). […]
Each of the above experiments was conducted two times and the experimental results were pooled and analyzed statistically by analysis of variance using the Statistical Analysis System computer package (SAS Institute Inc. 1980). […] Since the effects of temperature on growth were very large, the data from two temperatures used in the first experiment were analyzed separately.

| Compound | production of LCOs, in words [1] | effect on LCO production, in words (B. japonicum USDA 110; 25° C., genistein present) | effect on LCO production, in words (B. japonicum USDA 110; JA alone, without genistein, either temperature) | effect on LCO production, in words (B. japonicum USDA 110; low temperature (17° C.), genistein present) | LCO production compared with optimum genistein concentration (5 μM) ([1]; 100 μM) | peak-time for LCO production (B. japonicum USDA 110; after genistein was added to the cell culture) [h] |
| --- | --- | --- | --- | --- | --- | --- |
| CC/C=C\C[C@H]1C(=O)CC[C@@H]1CC(=O)O [JA, [1R-[1α,2β(Z)]]-3-oxo-2-(pentenyl)cyclopentaneacetic acid] | induced the production of LCOs | not at 25 °C | can not promote LCO production | can improve LCO production |  |  |
| CC/C=C\CC1C(=O)CCC1CC(=O)OC (stereo not shown) [MeJA, methyl jasmonate] | induced the production of LCOs |  |  |  | substantially more LCO |  |
| O=c1c(-c2ccc(O)cc2)coc2cc(O)cc(O)c12 [GEN, 5,7,4′-trihydroxyisoflavone] |  |  |  |  |  | 8 to 10 |
